# Experimental data published in ChEMBL document CHEMBL1136563, “Pharmacophore-based discovery of substituted pyridines as novel dopamine transporter inhibitors” (Bioorg Med Chem Lett, 2003).
# Molecular target: T1, Sodium-dependent dopamine transporter (Homo sapiens, UniProt Q01959)
# Assay: Inhibition of [3H]DA uptake evaluated at the dopamine transporter
row,Structure (SMILES),Ki
1,c1ccc(C(c2ccccc2)c2cccnc2)cc1,860 nM
2,c1ccc(CC(c2ccccc2)c2ccncc2)cc1 (configuration not stated),263 nM
3,c1ccc(C(c2ccccc2)c2ccncc2)cc1,255 nM
4,c1ccc(Cc2ccncc2)cc1,> 10000 nM
5,c1cncc(-c2c3ccccc3cc3ccccc23)c1,> 10000 nM
6,c1ccc2c(-c3ccncc3)c3ccccc3cc2c1,> 10000 nM

# Molecular target: Sodium-dependent noradrenaline transporter (Homo sapiens, UniProt P23975)
# Assay: Inhibition of [3H]-NE uptake evaluated at the monoamine transporter (NET)
row,Structure (SMILES),Ki
1,c1ccc(C(c2ccccc2)c2cccnc2)cc1,7320 nM
2,c1ccc(CC(c2ccccc2)c2ccncc2)cc1 (configuration not stated),393 nM
3,c1ccc(C(c2ccccc2)c2ccncc2)cc1,3460 nM
4,c1ccc(Cc2ccncc2)cc1,> 10000 nM
5,c1ccc(C(c2ccccc2)c2ccccn2)cc1,5530 nM
6,c1cncc(-c2c3ccccc3cc3ccccc23)c1,> 10000 nM
7,c1ccc2c(-c3ccncc3)c3ccccc3cc2c1,> 10000 nM

# Molecular target: T1, Sodium-dependent dopamine transporter
# Assay: Affinity to displace binding of [3H]WIN-35428 to dopamine transporter
row,Structure (SMILES),Ki
1,c1ccc(C(c2ccccc2)c2cccnc2)cc1,780 nM
2,c1ccc(CC(c2ccccc2)c2ccncc2)cc1 (configuration not stated),99 nM
3,c1ccc(C(c2ccccc2)c2ccncc2)cc1,79 nM
4,c1ccc(Cc2ccncc2)cc1,> 10000 nM
5,c1ccc(C(c2ccccc2)c2ccccn2)cc1,742 nM
6,c1cncc(-c2c3ccccc3cc3ccccc23)c1,> 10000 nM
7,c1ccc2c(-c3ccncc3)c3ccccc3cc2c1,> 10000 nM

# Molecular target: Sodium-dependent serotonin transporter (Homo sapiens, UniProt P31645)
# Assay: Inhibition of [3H]-5-HT uptake evaluated at the Serotonin transporter
row,Structure (SMILES),Ki
1,c1ccc(C(c2ccccc2)c2cccnc2)cc1,12600 nM
2,c1ccc(CC(c2ccccc2)c2ccncc2)cc1 (configuration not stated),910 nM
3,c1ccc(C(c2ccccc2)c2ccncc2)cc1,1160 nM
4,c1ccc(Cc2ccncc2)cc1,> 10000 nM
5,c1ccc(C(c2ccccc2)c2ccccn2)cc1,35000 nM
6,c1cncc(-c2c3ccccc3cc3ccccc23)c1,> 10000 nM
7,c1ccc2c(-c3ccncc3)c3ccccc3cc2c1,> 10000 nM

# Molecular target: Sodium-dependent dopamine transporter (Rattus norvegicus, UniProt P23977)
# Assay: Inhibition of reuptake of DA into striatal nerve endings (synaptosomes)
# Assay type: subcellular, Brain
row,Structure (SMILES),Ki
1,CN=C=C(c1ccc(Cl)cc1)c1ccc(Cl)cc1,> 1000 nM
2,Clc1ccccc1/C=C(/c1ccccc1)c1ccccn1,> 1000 nM
3,CN(C)CCC(C#N)(c1ccccc1)c1ccccc1,> 1000 nM
4,N#Cc1c(Cl)nnc(-c2ccccc2)c1-c1ccccc1,> 1000 nM
5,c1ccc(Cc2ccnc(Cc3ccccc3)c2)cc1,2300 nM
6,c1ccc2cc(-c3nnnn3-c3cnc4ccccc4c3)ccc2c1,> 1000 nM
7,Clc1cnc(-c2ccccc2)n1Cc1ccccc1,> 1000 nM
8,c1ccc(C(c2ccccc2)c2ccncc2)cc1,200 nM
9,CN=C=C(c1ccccc1)c1ccccc1,> 1000 nM
10,c1ccc(-c2nnnn2-c2cnc3ccccc3c2)cc1,> 1000 nM
